Experimental findings from patent EP0338435A1, “3,4-Dihydroxypyrrolidin-2-one derivatives, process for their preparation, agents containing them and their use as well as the intermediates resulting from the preparation” (HOECHST AKTIENGESELLSCHAFT, priority 1988, dated 1989) are described below.

The subject of one experiment is ECS-Amnesie. Description: inhibitory (passive) avoidance test (step-through test), reversal of ECS-induced amnesia. Format: in vivo, Mäusen. The conditions noted are these: po. From the text: (§1) Die Verbindungen der Formel I besitzen wertvolle pharmakologische Eigenschaften, insbesondere nootrope. Die nootrope Wirkung der erfindungsgemäßen Verbindungen wurde an Mäusen, die ein Körpergewicht von 20-25 g besaßen, im inhibitory (passive) avoidance test (step-through-test) geprüft. Eine modifizierte Form der von J. Kopp. Z. Bodanecky und M.E. Jarvik beschriebenen Test-Methode wurde von J. Bures, 0. Buresova und J. Huston im "Techniques and Basic Experiments for the Study of Brain and Benavior", Elsevier Scientific Publishers, Amsterdam 1983, beschrieben.
(§2) Entsprechend diesen Literaturangaben wird eine Substanz dann als nootrop wirksam bezeichnet, wenn sie bei den Versuchstieren die mittels eines electroconvulsiven Schocks erzeugte Amnesie (ECS-Amnesie) bzw. mittels Scopolamin-Injektion erzeugte Amnesie aufzuheben vermag.
(§3) Die Versuche wurden nach modifizierten Test-Methoden mit den erfindungsgemäßen Verbindungen durchgeführt. Als Vergleichsverbindung diente das bekannte Nootropikum 2-0xo-1-pyrrolidinylessigsäurea- mid (Piracetam). Die deutliche Überlegenheit der erfindungsgemäßen Verbindungen über die Vergleichssubstanz zeigte sich darin, daß der amnestische Effekt bereits mit einer MED (minimal effective dose) von 1-10 mg/kg p.o. aufzuheben ist. Die Vergleichssubstanz hat eine MED von ca. 500-1000 mg/kg p.o.

Another experiment has as its system Scopolamin-Amnesie. Description: inhibitory (passive) avoidance test (step-through test), reversal of scopolamine-induced amnesia. It is filed as in vivo, Mäusen. The note with it: Mus musculus, po, read-out: Inhibitory avoidance MED mg/kg p.o. Scopolamin-Amnesie.
Description: as §1, §2, §3

[1] abbreviates: Mus musculus, read-out: Inhibitory avoidance MED mg/kg p.o. ECS-Amnesie.
[2] abbreviates: Mus musculus, mice 20-25 g, amnesia induced by electroconvulsive shock, read-out: Inhibitory avoidance MED mg/kg p.o. ECS-Amnesie.
The mark [3] stands for this setting: mice 20-25 g, amnesia induced by scopolamine injection.

Read-outs that look alike come from different tables or passages of the source.

In the case of `CC(C)N(CCNC(=O)CN1C[C@@H](O)[C@@H](O)C1=O)C(C)C` [Beispiel 28, N-[2-(Diisopropylamino)ethyl]-2-[(3R,4R)-3,4-dihydroxypyrrolidin-2-on-1-yl]acetamid], the minimal effective dose in the experiment with ECS-Amnesie (setting [1]) is 10 mg/kg.
Take `O=C1[C@H](O)[C@H](O)CN1Cc1ccccc1` [Beispiel 29, 1-Benzyl-(3R,4R)-3.4-dihydroxy-pyrrolidin2-on]: the figures for the minimal effective dose in the experiment with ECS-Amnesie (setting [2]) and in the experiment on Scopolamin-Amnesie (setting [3]) were 3 mg/kg and 1 mg/kg, respectively.
With `Cc1ccc(CN2C[C@@H](O)[C@@H](O)C2=O)cc1` [Beispiel 33], the minimal effective dose in the experiment on ECS-Amnesie (setting [2]) stood at 3 mg/kg.
In the case of `COc1cccc(CN2C[C@@H](O)[C@@H](O)C2=O)c1` [Beispiel 34], the results for the minimal effective dose in the experiment with ECS-Amnesie (setting [2]) and in the experiment with Scopolamin-Amnesie (setting [3]) were 3 mg/kg and 1 mg/kg, respectively.
For the compound `Nc1ccc(CN2C[C@@H](O)[C@@H](O)C2=O)cc1` [Beispiel 36, 1-(4-Aminobenzyl)-(3R,4R)-3,4-dihydroxypyrrolidin-2-on], the minimal effective dose with ECS-Amnesie (setting [2]) worked out at 3 mg/kg.
As to `NC(=O)CN1CCCC1=O` [Piracetam, 2-0xo-1-pyrrolidinylessigsäurea-mid, reference compound], the values for the minimal effective dose in the experiment on ECS-Amnesie (setting [1]), with ECS-Amnesie (read-out: MED (minimal effective dose)) and in the experiment on Scopolamin-Amnesie were 1000 mg/kg, 500 to 1000 mg/kg and 500 mg/kg, respectively.
